Source: patent US9149038B2, “4-amino-6-(heterocyclic)picolinates and 6-amino-2-(heterocyclic)pyrimidine-4-carboxylates and their use as herbicides” (Dow AgroSciences LLC, priority 2013, dated 2015)
Read-outs that look alike come from different tables or passages of the source.

System: Direct Seeded Rice and weed species
Experiment: Postemergence herbicidal activity in direct seeded rice, visual rating after 20-22 days and probit GR20/GR50/GR80/GR90 (Table 14)
Type: in vivo
Details: for pest or weed control at 17.5 g/ha / pest or weed control at 35 g/ha / pest or weed control at 70 g/ha: post-emergence, 504 h, postemergence; for pest or weed control at 17.5 g/ha: 17.5 g ai/ha; for pest or weed control at 35 g/ha: 35 g ai/ha; for pest or weed control at 70 g/ha: 70 g ai/ha
Excerpt: Herbicidal evaluations were made visually on a scale of 0 to 100 where 0 represents no activity and 100 represents complete plant death. Seeds or nutlets of the desired test plant species were planted in a soil matrix prepared by mixing a loam soil (43 percent silt, 19 percent clay, and 38 percent sand, with a pH of about 8.1 and an organic matter content of about 1.5 percent) and river sand in an 80 to 20 ratio. The soil matrix was contained in plastic pots with a surface area of 139.7 cm^2. When required to ensure good germination and healthy plants, a fungicide treatment and/or other chemical or physical treatment was applied. The plants were grown for 10-17 d in a greenhouse with an approximate 14-h photoperiod which was maintained at about 29° C. during the day and 26° C. during the night. Nutrients and water were added on a regular basis and supplemental lighting was provided with overhead metal halide 1000-Watt lamps as necessary. The plants were employed for testing when they reached the second or third true leaf stage. A weighed amount, determined by the highest rate to be tested, of each test compound was placed in 25 mL glass vials and dissolved in a volume of 97:3 v/v acetone-DMSO to obtain 12× stock solutions. […] The concentrated stock solutions were added to the spray solutions so that the final acetone and DMSO concentrations were 16.2% and 0.5%, respectively. Spray solutions were diluted to the appropriate final concentrations with the addition of 10 mL of an aqueous mixture of 1.5% (v/v) Agri-dex crop oil concentrate. The final spray solutions contained 1.25% (v/v) Agri-dex crop oil concentrate. Compound requirements are based upon a 12 mL application volume at a rate of 187 L/ha. Formulated compounds were applied to the plant material with an overhead Mandel track sprayer equipped with […] nozzles calibrated to deliver 187 L/ha over an application area of 0.503 square meters (m^2) at a spray height of 18 inches (43 cm) above average plant canopy height. Control plants were sprayed in the same manner with the solvent blank. The treated plants and control plants were placed in a greenhouse as described above and watered by sub-irrigation to prevent wash-off of the test compounds. After 20-22 days, the condition of the test plants, compared with that of the untreated plants, was determined visually and scored on a scale of 0 to 100 percent where 0 corresponds to no injury and 100 corresponds to complete kill and are presented as indicated in Table 4. By applying the well-accepted probit analysis as described by J. Berkson in Journal of the American Statistical Society, 48, 565 (1953) and by D. Finney in “Probit Analysis” Cambridge University Press (1952), herbicidal injury of a specific compound at various rates can be used to calculate GR20, GR50, GR80 and GR90 values, which are defined as growth reduction factors that correspond to the effective dose of herbicide required to provide plant growth reduction (GR) of 20 percent, 50 percent, 80 percent and 90 percent, respectively. Probit analysis was applied to data collected from multiple dose rates of individual compounds utilizing the procedures explained in the following examples. The data for some of the dose rates and analysis of all of the dose rates are captured in the following tables.

[1] = BRAPP (broadleaf signalgrass, Brachiaria platyphylla), read-out: Visual Growth Reduction (%) 21 Days After Application BRAPP
[2] = CYPDI (small-flower flatsedge, Cyperus difformis), read-out: Visual Growth Reduction (%) 21 Days After Application CYPDI
[3] = CYPES (yellow nutsedge, Cyperus esculentus), read-out: Visual Growth Reduction (%) 21 Days After Application CYPES
[4] = CYPIR (rice flatsedge, Cyperus iria), read-out: Visual Growth Reduction (%) 21 Days After Application CYPIR
[5] = DIGSA (large crabgrass, Digitaria sanguinalis), read-out: Visual Growth Reduction (%) 21 Days After Application DIGSA
[6] = ECHCG (barnyardgrass, Echinochloa crus-galli), read-out: Visual Growth Reduction (%) 21 Days After Application ECHCG
[7] = ECHCO (junglerice, Echinochloa colonum), read-out: Visual Growth Reduction (%) 21 Days After Application ECHCO
[8] = LEFCH (Chinese sprangletop, Leptochloa chinensis), read-out: Visual Growth Reduction (%) 21 Days After Application LEFCH
[9] = ORYSJ (Oryza sativa, rice crop), read-out: Visual Growth Reduction (%) 21 Days After Application ORYSJ
[10] = ORYSK (Oryza sativa, rice crop), read-out: Visual Growth Reduction (%) 21 Days After Application ORYSK
[11] = SCPJU (Japanese bulrush, Schoenoplectus juncoides Roxb.), read-out: Visual Growth Reduction (%) 21 Days After Application SCPJU
[12] = SEBEX (hemp sesbania, Sesbania exaltata), read-out: Visual Growth Reduction (%) 21 Days After Application SEBEX

Nc1c(F)c(-c2ccc3c(c2F)OC(F)(F)O3)nc(C(=O)O)c1Cl [Compound 11]
GR50 BRAPP (BRAPP (Brachiaria platyphylla), probit analysis, dose for 50 percent growth reduction): 7 g ai/ha | GR80 BRAPP (BRAPP (Brachiaria platyphylla), probit analysis, dose for 80 percent growth reduction): 16 g ai/ha | GR90 BRAPP (BRAPP (Brachiaria platyphylla), probit analysis, dose for 90 percent growth reduction): 25 g ai/ha | GR50 CYPDI (CYPDI (Cyperus difformis), probit analysis, dose for 50 percent growth reduction): 3 g ai/ha | GR80 CYPDI (CYPDI (Cyperus difformis), probit analysis, dose for 80 percent growth reduction): 7 g ai/ha | GR90 CYPDI (CYPDI (Cyperus difformis), probit analysis, dose for 90 percent growth reduction): 10 g ai/ha | GR50 CYPES (CYPES (Cyperus esculentus), probit analysis, dose for 50 percent growth reduction): <18 g ai/ha | GR80 CYPES (CYPES (Cyperus esculentus), probit analysis, dose for 80 percent growth reduction): <18 g ai/ha | GR90 CYPES (CYPES (Cyperus esculentus), probit analysis, dose for 90 percent growth reduction): <18 g ai/ha | GR50 CYPIR (CYPIR (Cyperus iria), probit analysis, dose for 50 percent growth reduction): 5 g ai/ha | GR80 CYPIR (CYPIR (Cyperus iria), probit analysis, dose for 80 percent growth reduction): 7 g ai/ha | GR90 CYPIR (CYPIR (Cyperus iria), probit analysis, dose for 90 percent growth reduction): 7 g ai/ha | GR50 DIGSA (DIGSA (Digitaria sanguinalis), probit analysis, dose for 50 percent growth reduction): 1 g ai/ha | GR80 DIGSA (DIGSA (Digitaria sanguinalis), probit analysis, dose for 80 percent growth reduction): 4 g ai/ha | GR90 DIGSA (DIGSA (Digitaria sanguinalis), probit analysis, dose for 90 percent growth reduction): 9 g ai/ha | GR50 ECHCG (ECHCG (Echinochloa crus-galli), probit analysis, dose for 50 percent growth reduction): 7 g ai/ha | GR80 ECHCG (ECHCG (Echinochloa crus-galli), probit analysis, dose for 80 percent growth reduction): 15 g ai/ha | GR90 ECHCG (ECHCG (Echinochloa crus-galli), probit analysis, dose for 90 percent growth reduction): 23 g ai/ha | GR50 ECHCO (ECHCO (Echinochloa colonum), probit analysis, dose for 50 percent growth reduction): 4 g ai/ha | GR80 ECHCO (ECHCO (Echinochloa colonum), probit analysis, dose for 80 percent growth reduction): 9 g ai/ha | GR90 ECHCO (ECHCO (Echinochloa colonum), probit analysis, dose for 90 percent growth reduction): 14 g ai/ha | GR50 LEFCH (LEFCH (Leptochloa chinensis), probit analysis, dose for 50 percent growth reduction): 23 g ai/ha | GR80 LEFCH (LEFCH (Leptochloa chinensis), probit analysis, dose for 80 percent growth reduction): 34 g ai/ha | GR90 LEFCH (LEFCH (Leptochloa chinensis), probit analysis, dose for 90 percent growth reduction): 41 g ai/ha | GR20 ORYSJ (ORYSJ (Oryza sativa, rice crop), probit analysis, dose for 20 percent growth reduction): 8 g ai/ha | GR20 ORYSK (ORYSK (Oryza sativa, rice crop), probit analysis, dose for 20 percent growth reduction): 7 g ai/ha | GR50 SCPJU (SCPJU (Schoenoplectus juncoides Roxb.), probit analysis, dose for 50 percent growth reduction): 0.04 g ai/ha | GR80 SCPJU (SCPJU (Schoenoplectus juncoides Roxb.), probit analysis, dose for 80 percent growth reduction): 1 g ai/ha | GR90 SCPJU (SCPJU (Schoenoplectus juncoides Roxb.), probit analysis, dose for 90 percent growth reduction): 2 g ai/ha | GR50 SEBEX (SEBEX (Sesbania exaltata), probit analysis, dose for 50 percent growth reduction): 3 g ai/ha | GR80 SEBEX (SEBEX (Sesbania exaltata), probit analysis, dose for 80 percent growth reduction): 7 g ai/ha | GR90 SEBEX (SEBEX (Sesbania exaltata), probit analysis, dose for 90 percent growth reduction): 10 g ai/ha | pest or weed control at 17.5 g/ha [1]: 85 to 94% | pest or weed control at 35 g/ha [1]: 95 to 100% | pest or weed control at 70 g/ha [1]: 95 to 100% | pest or weed control at 17.5 g/ha [2]: 95 to 100% | pest or weed control at 35 g/ha [2]: 95 to 100% | pest or weed control at 70 g/ha [2]: 95 to 100% | pest or weed control at 17.5 g/ha [3]: 85 to 94% | pest or weed control at 35 g/ha [3]: 95 to 100% | pest or weed control at 70 g/ha [3]: 95 to 100% | pest or weed control at 17.5 g/ha [4]: 95 to 100% | pest or weed control at 35 g/ha [4]: 95 to 100% | pest or weed control at 70 g/ha [4]: 95 to 100% | pest or weed control at 17.5 g/ha [5]: 95 to 100% | pest or weed control at 35 g/ha [5]: 95 to 100% | pest or weed control at 70 g/ha [5]: 95 to 100% | pest or weed control at 17.5 g/ha [6]: 95 to 100% | pest or weed control at 35 g/ha [6]: 85 to 94% | pest or weed control at 70 g/ha [6]: 95 to 100% | pest or weed control at 17.5 g/ha [7]: 95 to 100% | pest or weed control at 35 g/ha [7]: 95 to 100% | pest or weed control at 70 g/ha [7]: 95 to 100% | pest or weed control at 17.5 g/ha [8]: 0 to 29% | pest or weed control at 35 g/ha [8]: 95 to 100% | pest or weed control at 70 g/ha [8]: 95 to 100% | pest or weed control at 17.5 g/ha [9]: 30 to 44% | pest or weed control at 35 g/ha [9]: 75 to 84% | pest or weed control at 70 g/ha [9]: 85 to 94% | pest or weed control at 17.5 g/ha [10]: 45 to 59% | pest or weed control at 35 g/ha [10]: 60 to 74% | pest or weed control at 70 g/ha [10]: 75 to 84% | pest or weed control at 17.5 g/ha [11]: 95 to 100% | pest or weed control at 35 g/ha [11]: 95 to 100% | pest or weed control at 70 g/ha [11]: 95 to 100% | pest or weed control at 17.5 g/ha [12]: 95 to 100% | pest or weed control at 35 g/ha [12]: 95 to 100% | pest or weed control at 70 g/ha [12]: 95 to 100%
